# Experimental data reported in paper PMC12040169 (PLOS Biology, 2025).
# Assay: in vitro
# Conditions: human, hela cells, % viability
row,Structure (SMILES),"viability at 28.5 h, 10 µM"
1,COc1ccc2ncc3c(c2c1)NCCNC3=O [CBK291168],88.4%
2,O=C(O)c1cccc2c1C(=O)N(Cc1ccccc1F)C2 [CBK291172],86.8%
3,O=C(Nc1nccs1)c1c(O)n(Cc2ccccc2)c2ccccc2c1=O [CBK291173],96.6%
4,COc1cc(Br)cc(C2NC(=O)c3cnc(SC)nc3N2)c1O (stereo not shown) [CBK291179],91.9%
5,Cc1nn(-c2ccccn2)c(N)c1C1CC(=O)N(c2ccc(C(=O)O)cc2)C1=O (stereo not shown) [CBK291180],95.2%
6,O=c1c([N+](=O)[O-])c(O)c2ccccc2n1Cc1ccccc1 [CBK291182],94.8%
7,O=C(O)c1cccc2c1C(=O)N(Cc1ccc(F)cc1)C2 [CBK291183],87.3%
8,CCOc1ccc(CCNC(=O)c2cnc(Nc3ccccc3OC)c3ccccc23)cc1OCC [CBK291185],94.5%
9,COc1ccc(Sc2cc3n(c(=O)n2)CCc2cc(OC)c(OC)cc2-3)cc1 [CBK291186],81.9%
10,O=c1c(-c2ccccc2)c(O)cc(-c2ccccc2)n1Cc1ccccc1 [CBK291188],115%
11,CCCc1nc(SC)ncc1C(=O)NCc1ccccn1 [CBK291190],108%
12,Cc1[nH]c(=O)c(C(=O)Nc2ccc(-n3ccc(C(N)=O)n3)cc2)cc1-c1ccccc1 [CBK291194],109%
13,COc1ccc(Cl)cc1C(=O)Nc1cc(C)c2c(=O)oc3ccccc3c2n1 [CBK291196],108%
14,Cc1ccc(Nc2ncc(C(=O)NCCCN3CCCCCC3)c3ccccc23)cc1Cl [CBK291197],105%
15,CCN(CC)CCNC(=O)c1c(O)c2ccccc2n(Cc2ccccc2)c1=O [CBK291199],113%
16,O=C(O)c1cccc2c1C(=O)N(Cc1c(F)cccc1Cl)C2 [CBK291201],111%
17,c1ccc(-c2nc(-c3ccncc3)sc2-c2ccccc2)cc1 [CBK291203],116%
18,Cc1cc(NC(=O)c2ccc(N3C(=O)CCC3=O)cc2)nc2c1c(=O)oc1ccccc12 [CBK291205],114%
19,O=C(Nc1cccnc1)c1c(O)n(Cc2ccccc2)c2ccccc2c1=O [CBK291206],110%
20,O=C(Nc1ncccc1O)c1c(O)c2ccccc2n(Cc2ccccc2)c1=O [CBK291211],103%
21,CCCCCn1c(=O)c(-c2nc3ccccc3c(=O)[nH]2)c(O)c2ccccc21 [CBK291215],110%

row,Structure (SMILES),"viability at 28.5 h, 10 µM"
1,O=C(c1cc[nH]n1)N1CCCCC1c1ncc(-c2cccc(F)c2)[nH]1 (stereo not shown) [CBK291217],94.6%
2,COc1cc(OC)cc(C(=O)Nc2cc(C)c3c(=O)oc4ccccc4c3n2)c1 [CBK291221],95.2%
3,Cc1[nH]c(=O)c(C(=O)N(C)C(C)c2ccc(Cl)cc2)cc1-c1ccc(O)cc1 (stereo not shown) [CBK291225],98.8%
4,COc1cc(CN2Cc3cccc(C(=O)O)c3C2=O)cc(OC)c1OC [CBK291227],108%
5,Cc1nc2ncnc(N3CCc4ccccc43)c2[nH]1 [CBK291228],89.2%
6,Cc1cc(NC(=O)COc2ccc(Cl)cc2)nc2c1c(=O)oc1ccccc12 [CBK291230],92.9%
7,COc1ccc(C(=O)Nc2cc(C)c3c(=O)oc4ccccc4c3n2)c(OC)c1 [CBK291231],94.5%
8,CN(C)CCCn1cnc2c1c(=O)[nH]c(=O)n2Cc1ccccc1 [CBK291234],95.3%
9,CN(C)CCn1cnc2c1c(=O)[nH]c(=O)n2Cc1ccccc1 [CBK291235],96.9%
10,COc1ccc(CN2Cc3cccc(C(=O)O)c3C2=O)cc1OC [CBK291237],83.5%
11,Cc1cc(NC(=O)c2cccc(Br)c2)nc2c1c(=O)oc1ccccc12 [CBK291238],94.3%
12,CCOc1ccccc1C(=O)Nc1cc(C)c2c(=O)oc3ccccc3c2n1 [CBK291240],87.4%
13,CCc1c(C(=O)NC(C)c2cccc(Cl)c2)cnc2cc(O)nn12 (stereo not shown) [CBK291243],95%
14,CCc1c(C(=O)Nc2ccc(C(F)(F)F)cc2)cnc2ncnn12 [CBK291244],90.4%
15,O=C(O)c1cccc2c1C(=O)N(Cc1cccs1)C2 [CBK291246],95.3%
16,Cc1cc(NC(=O)C2CCCCC2)nc2c1c(=O)oc1ccccc12 [CBK291247],83.1%
17,Cc1ccc(Nc2ncc(C(=O)NCCCN3CCN(c4cccc(Cl)c4)CC3)c3ccccc23)cc1Cl [CBK291251],90.1%
18,CC(c1ccccc1)N1Cc2cccc(C(=O)O)c2C1=O (stereo not shown) [CBK291252],97.6%
19,CC1(c2cc(F)ccc2F)NC(=O)N(c2ccncc2)C1=O (stereo not shown) [CBK291253],92.9%
20,COc1ccc(Oc2ncnc3c2[nH]c2ccccc23)cc1 [CBK291254],88.9%
21,O=c1cc(O)c2ccccc2n1Cc1ccccc1Cl [CBK291255],93.4%

row,Structure (SMILES),"viability at 28.5 h, 10 µM"
1,Cc1cc(NC(=O)c2cc3ccccc3o2)nc2c1c(=O)oc1ccccc12 [CBK291256],90.2%
2,Cc1cc(NC(=O)CN2CCC(Cc3ccccc3)CC2)nc2c1c(=O)oc1ccccc12 [CBK291261],87.2%
3,Cc1cc(NC(=O)c2ccc(Cl)c([N+](=O)[O-])c2)nc2c1c(=O)oc1ccccc12 [CBK291263],96.7%
4,O=C1COc2ccccc2C/C=C/CC2(CCN(C(=O)c3c[nH]cn3)CC2)C(=O)NCCN1 [CBK291990],98.3%
5,O=C1NCCNC(=O)C2(C/C=C/COc3ccccc31)CCCN(C(=O)c1cnco1)C2 (stereo not shown) [CBK291993],106%
6,Cc1noc(C)c1C(=O)N1CC[C@H]2NC(=O)c3ccccc3OCC/C=C/C[C@H]2C1 [CBK291994],100%
7,O=C1NCCNC(=O)C2(C/C=C/COc3ccccc31)CCN(C(=O)CCC1CCCC1)CC2 [CBK291995],118%
8,O=C1COc2ccccc2C/C=C/CC2(CCNCC2)C(=O)NCCN1 [CBK291996],105%
9,O=C1COc2ccccc2C/C=C/CC2(CCN(C(=O)c3cnccn3)CC2)C(=O)NCCN1 [CBK291997],106%
10,O=C1NCCNC(=O)C2(C/C=C/COc3ccccc31)CCN(C(=O)c1ccc3[nH]nnc3c1)CC2 [CBK292000],106%
11,O=C(O)c1ccc(CN2CCC3(C/C=C/CNC(=O)c4ccccc4OCCNC3=O)CC2)cc1 [CBK292002],109%
12,CCC(=O)N1CCC2(C/C=C/CC(=O)Nc3cccc(n3)C3CN(CCO3)C(=O)CN(C)C2=O)CC1 (stereo not shown) [CBK292004],105%
13,Cc1cc(C(=O)N2CC[C@H]3NC(=O)c4ccccc4OCCCCC[C@H]3C2)no1 [CBK292005],91.8%
14,O=C1NC/C=C/CC2(CCN(C(=O)CCc3cccnc3)CC2)C(=O)NCCOc2ccccc21 [CBK292007],88.3%
15,O=C1COc2ccccc2CCCCC2(CCCN(CC(=O)N3CCCC3)C2)CN1 (stereo not shown) [CBK292009],105%
16,Cc1cnn(CC(=O)N2CC[C@H]3NC(=O)c4ccccc4OCCCCC[C@H]3C2)c1 [CBK292010],107%
17,CC(=O)NCC(=O)N1CCC[C@@H]2[C@H]1CCCCc1ccccc1OCC(=O)N2C [CBK292011],117%
18,COc1ccc(CN2CC[C@H]3NC(=O)CNC(=O)C4(C/C=C/C[C@H]3C2)CCN(C(C)=O)CC4)cc1 [CBK292013],90.4%
19,O=C1NCC2(C/C=C/CCOc3ccccc31)CCN(C(=O)CCN1CCCC1=O)CC2 [CBK292016],99.3%
20,O=C1NCC2(C/C=C/CCOc3ccccc31)CCN(C(=O)CCN1CCCC1)CC2 [CBK292020],87.5%
21,Cc1ccc(CN2CCCC3(C/C=C/COc4ccccc4C(=O)NCCNC3=O)C2)cn1 (stereo not shown) [CBK292022],94%

row,Structure (SMILES),"viability at 28.5 h, 10 µM"
1,O=C1NCCNC(=O)C2(C/C=C/COc3ccccc31)CCN(Cc1ccccc1F)CC2 [CBK292024],101%
2,COc1cccc(CN2CCC3(C/C=C/COc4ccccc4C(=O)NCCNC3=O)CC2)c1F [CBK292025],108%
3,CN1CCOc2ccccc2C(=O)NC/C=C/CC2(CCCNC2)C1=O (stereo not shown) [CBK292027],107%
4,Cn1nccc1CCC(=O)N1CC[C@H]2NC(=O)c3ccccc3OCCCCC[C@H]2C1 [CBK292028],97.4%
5,Cn1cnc(C(=O)N2CC[C@H]3NC(=O)c4ccccc4OCCCCC[C@H]3C2)c1 [CBK292031],88.9%
6,O=C1COc2ccccc2C/C=C/CC2(CCCN(C(=O)CN3CCCC3=O)C2)CN1 (stereo not shown) [CBK292032],98.1%
7,O=C1COc2ccccc2CCCC[C@@H]2CNCC[C@H]2N1 [CBK292038],105%
8,CNC(=O)CN1CCC[C@@H]2NC(=O)COc3ccccc3C(=O)N[C@@H]3CCOC[C@@H]3C/C=C/C[C@@H]21 [CBK292040],100%
9,O=C1N[C@@H]2CCN(C(=O)Cc3ccc(O)cc3)C[C@@H]2C/C=C/CCOc2ccccc21 [CBK292043],103%
10,O=C1COc2ccccc2CCCC[C@@H]2CN(C(=O)CCN3CCCC3=O)CC[C@H]2N1 [CBK292044],91.8%
11,CNC(=O)CN1CC[C@H]2NC(=O)c3ccccc3OCC/C=C/C[C@H]2C1 [CBK292049],110%
12,O=C1CNC(=O)C2(C/C=C/C[C@H]3COCC[C@@H]3N1)CCN(C(=O)CCc1cccnc1)CC2 [CBK292051],107%
13,CN1CC(=O)N2CCOC(C2)c2cccc(n2)NC(=O)C/C=C/CC2(CCNCC2)C1=O (stereo not shown) [CBK292053],102%
14,CC(=O)N1CCC[C@H]2NC(=O)CNC(=O)C3(C/C=C/C[C@H]21)CCN(Cc1ccccc1O)CC3 [CBK292054],99.3%
15,NC(=O)CN1CCCC2(CCCCc3ccccc3OCC(=O)NC2)C1 (stereo not shown) [CBK292058],106%
16,NC(=O)CCC(=O)N1CCC2(C/C=C/CCOc3ccccc3C(=O)NCCCNC2=O)CC1 [CBK292059],91.7%
17,CCN1CCC2(C/C=C/CCOc3ccccc3C(=O)NCCCNC2=O)CC1 [CBK292060],83.3%
18,CCN1CCC2(C/C=C/CNC(=O)c3ccccc3OCCN(C)C2=O)CC1 [CBK292061],102%
19,O=C1N[C@H]2CCCN(C(=O)c3cc(=O)[nH]c(=O)[nH]3)[C@H]2C/C=C/CCOc2ccccc21 [CBK292065],107%
